IC50 and inhibition data for 23 molecules are collected here from patent publication US8344135B2, “Heterocyclic compound and use thereof” (Takeda Pharmaceutical Company Limited, priority 2007, dated 2013).

SMILES strings stand for the structures.

The test system of experiment [1] is human colon cancer cell HT-29. The experiment is described as follows: Colon cancer cell HT-29 growth suppressive action in vitro. The experiment is classed as cell-based. Conditions: 72 h, HT-29 cells, 3 days culture, SRB staining, read-out: IC50 (nM), cell growth suppression. The protocol:
Colon Cancer Cell HT-29 Growth Suppressive Action in vitro
A cell suspension (100 μL, 3,000 cells/well) of human colon cancer cell HT-29 (purchased from ATCC) was plated in a 96-well plate, and the cells were cultured at 37° C. in a 5% carbon dioxide gas incubator. The next day, 2-fold serial dilution of each test compound solution (diluted from maximum concentration 20 μM) (100 μL) was added, and the cells were cultured for 3 days. The culture medium containing the test compound was removed, and the cells were washed with phosphate buffer (PBS). A 50% trichloroacetic acid solution was added to the final concentration of 10% (v/v), and the mixture was stood overnight at 4° C., whereby the cells were fixed to the plate. Then, a dye SRB 0.4% (w/v) solution (dissolved in 1% acetic acid) was added at 50 μl/well, whereby the cell protein was fixed and stained (Skehan et al., Journal Of National Cancer Institute, vol. 82, pp. 1107-1112, 1990). The cells were washed 3 times with 1% acetic acid solution (200 μL/well), and 100 μL of an extract (10 mM Tris buffer) was added to extract the dye. The absorbance at an absorption wavelength […] was measured, and cell amount was measured as a protein amount.

In a further experiment the target is T1, BRAF (V600E) (Homo sapiens, UniProt P15056, V600E).
T1 construct: area encoding the BRAF kinase domain region, so that the protein contains an N-terminal Flag; made in house; host or cells: SF-21 insect cells infected with recombinant baculovirus BAC-V600E
Description: Determination of BRAF (V600E) kinase inhibitory activity. The format is biochemical. As to conditions: test compound 1.0 μM; substrate GST-MEK1 (K96R); [γ-32P]ATP; read-out: Inhibitory rate (%) at 1.0 μM. On the procedure: Determination of BRAF (V600E) Kinase Inhibitory Activity
A test compound (2.5 μL) dissolved in dimethyl sulfoxide (DMSO) was added to 37.5 μL of a reaction solution (25 mM HEPES (pH 7.5), 10 mM magnesium acetate, 1 mM dithiothreitol) containing BRAF (V600E) enzyme (30 ng) and recombinant type protein GST-MEK1 (K96R) 250 ng, and the mixture was incubated at room temperature for 10 min. ATP solution (10 μL, 2.5 μM ATP, 0.1 μCi [γ-^32P]ATP) was added to the obtained mixture, and the mixture was reacted at room temperature for 20 min. The reaction was quenched by adding 50 μL of ice-cooled 20% trichloroacetic acid (Wako Pure Chemical Industries, Ltd.). The reaction solution was allowed to stand at 4° C. for 30 min, and the acid-precipitable fraction was transferred to GF/C filter plate (Millipore Corporation) using cell harvester (PerkinElmer). The plate was dried at 45° C. for 60 min, and 40 μL of MicroScinti 0 (PerkinElmer) was added thereto. The radioactivity was measured using TopCount (PerkinElmer). The kinase inhibitory rate (%) of the test compound was calculated by the following formula: Inhibitory rate (%)=(1−(count of test compound−blank)÷(control−blank))×100
The count of the solution reacted without addition of the compound was used as a “control”, and the count of the solution without the compound and enzyme was used as a “blank”.

T1 sequence (P15056 457-717 V600E limits assumed): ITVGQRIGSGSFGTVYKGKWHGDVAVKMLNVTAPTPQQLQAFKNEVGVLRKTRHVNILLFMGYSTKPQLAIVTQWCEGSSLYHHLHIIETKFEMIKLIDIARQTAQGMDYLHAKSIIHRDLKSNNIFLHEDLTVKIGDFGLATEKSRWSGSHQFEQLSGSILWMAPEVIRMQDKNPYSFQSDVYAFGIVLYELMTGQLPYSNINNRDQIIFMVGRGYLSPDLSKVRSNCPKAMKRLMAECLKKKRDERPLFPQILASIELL

On to `Cc1ccc(NC(=O)c2cccc(C(C)(C)C#N)c2)cc1Oc1ccc2nc(NC(=O)C3CC3)sc2n1` [Example C12, 3-(1-cyano-1-methylethyl)-N-[3-({2-[(cyclopropylcarbonyl)amino][1,3]thiazolo[5,4-b]pyridin-5-yl}oxy)-4-methylphenyl]benzamide], for which the IC50 (usually the point on the concentration scale where inhibition reaches its midpoint) in experiment [1] is less than 500 nM.
In the case of `CN1CCN(CC(=O)Nc2nc3ccc(Oc4cccc(NC(=O)c5cccc(C(F)(F)F)c5)c4)nc3s2)CC1` [Example C22, N-{3-[(2-{[(4-methylpiperazin-1-yl)acetyl]amino}[1,3]thiazolo[5,4-b]pyridin-5-yl)oxy]phenyl}-3-(trifluoromethyl)benzamide], the inhibition at 1 µM on BRAF (V600E) was 100%.
As to `Cc1ccc(NC(=O)c2cccc(C(C)(C)C#N)c2)cc1Nc1ncc2nc(NC(=O)CN3CCN(C)CC3)sc2n1` [Example D33, 3-(1-cyano-1-methylethyl)-N-{4-methyl-3-[(2-{[(4-methylpiperazin-1-yl)acetyl]amino}[1,3]thiazolo[5,4-d]pyrimidin-5-yl)amino]phenyl}benzamide], the concentration for half-maximal inhibition (IC50) in experiment [1] was less than 500 nM.
`CN1CCN(CC(=O)Nc2nc3ccc(Oc4cccc(NC(=O)c5cccc(C(C)(C)C#N)c5)c4)nc3s2)CC1` [Example C25, 3-(1-cyano-1-methylethyl)-N-{3-[(2-{[(4-methylpiperazin-1-yl)acetyl]amino}[1,3]thiazolo[5,4-b]pyridin-5-yl)oxy]phenyl}benzamide]: on BRAF (V600E), the inhibition at 1 µM turned out to be 100%.
For `CN1CCN(CC(=O)Nc2nc3ccc(Oc4cccc(NC(=O)c5cccc(C6(C#N)CC6)c5)c4)nc3s2)CC1` [Example C28, 3-(1-cyanocyclopropyl)-N-{3-[(2-{[(4-methylpiperazin-1-yl)acetyl]amino}[1,3]thiazolo[5,4-b]pyridin-5-yl)oxy]phenyl}benzamide], the IC50 in experiment [1] is less than 500 nM.
As for `CC(C)(C#N)Oc1cccc(C(=O)Nc2cc(Nc3ccc4nc(NC(=O)C5CC5)sc4n3)ccc2F)c1Cl` [Example C126, 2-chloro-3-(1-cyano-1-methylethoxy)-N-[5-({2-[(cyclopropylcarbonyl)amino][1,3]thiazolo[5,4-b]pyridin-5-yl}amino)-2-fluorophenyl]benzamide], the IC50 in experiment [1] is less than 500 nM.
Turning to `CC(C)(C#N)c1cccc(C(=O)Nc2cc(Oc3ccc4nc(NC(=O)C5CC5)sc4n3)c(Cl)cc2F)c1` [Example C60, N-[4-chloro-5-({2-[(cyclopropylcarbonyl)amino][1,3]thiazolo[5,4-b]pyridin-5-yl}oxy)-2-fluorophenyl]-3-(1-cyano-1-methylethyl)benzamide], the inhibition at 1 µM on BRAF (V600E) came to 100%.
The same measure, in the same setting: in the case of `O=C(Nc1cccc(Nc2ccc3nc(NC(=O)C4CC4)sc3n2)c1)c1cccc(C(F)(F)F)c1` [Example C41, N-[3-({2-[(cyclopropylcarbonyl)amino][1,3]thiazolo[5,4-b]pyridin-5-yl}amino)phenyl]-3-(trifluoromethyl)benzamide] it was 100%.
With `Cc1ccc(NC(=O)c2cccc(C(C)(C)C#N)c2)cc1Nc1ncc2nc(NC(=O)C3CC3)sc2n1` [Example D25, 3-(1-cyano-1-methylethyl)-N-[3-({2-[(cyclopropylcarbonyl)amino][1,3]thiazolo[5,4-d]pyrimidin-5-yl}amino)-4-methylphenyl]benzamide], the IC50 in experiment [1] is less than 500 nM.
Turning to `CC(=O)Nc1nc2cnc(Nc3cc(NC(=O)c4cccc(C(C)(C)C#N)c4Cl)ccc3C)nc2s1` [Example D35, N-(3-{[2-(acetylamino)[1,3]thiazolo[5,4-d]pyrimidin-5-yl]amino}-4-methylphenyl)-2-chloro-3-(1-cyano-1-methylethyl)benzamide], the IC50 in experiment [1] was less than 500 nM.
Consider `Cc1ccc(NC(=O)c2cccc(C3(C#N)CC3)c2)cc1Oc1ccc2nc(NC(=O)CN3CCN(C)CC3)sc2n1` [Example C19, 3-(1-cyanocyclopropyl)-N-{4-methyl-3-[(2-{[(4-methylpiperazin-1-yl)acetyl]amino}[1,3]thiazolo[5,4-b]pyridin-5-yl)oxy]phenyl}benzamide], for which, in experiment [1], the IC50 is less than 500 nM.
Turning to `O=C(Nc1cccc(Oc2ccc3nc(NC(=O)C4CC4)sc3n2)c1)c1cccc(C(F)(F)F)c1` [Example C20, N-[3-({2-[(cyclopropylcarbonyl)amino][1,3]thiazolo[5,4-b]pyridin-5-yl}oxy)phenyl]-3-(trifluoromethyl)benzamide], the inhibition at 1 µM at BRAF (V600E) is 100%.
Regarding `CCN1CCN(CC(=O)Nc2nc3ccc(Oc4cc(NC(=O)c5cccc(C(C)(C)C#N)c5)ccc4C)nc3s2)CC1` [Example C88, 3-(1-cyano-1-methylethyl)-N-{3-[(2-{[(4-ethylpiperazin-1-yl)acetyl]amino}[1,3]thiazolo[5,4-b]pyridin-5-yl)oxy]-4-methylphenyl}benzamide], in experiment [1], the 50% inhibitory concentration (IC50) is less than 500 nM.
`Cc1ccc(Oc2ccc3nc(NC(=O)c4cocn4)sc3n2)cc1NC(=O)c1cccc(C2(C#N)CC2)c1` [Example C30, N-[5-(3-{[3-(1-cyanocyclopropyl)benzoyl]amino}-4-methylphenoxy)[1,3]thiazolo[5,4-b]pyridin-2-yl]-1,3-oxazole-4-carboxamide]: the inhibition at 1 µM on BRAF (V600E) amounted to 100%.
For `CC(C)(C#N)c1cccc(C(=O)Nc2cccc(Oc3ccc4nc(NC(=O)C5CC5)sc4n3)c2)c1` [Example C23, 3-(1-cyano-1-methylethyl)-N-[3-({2-[(cyclopropylcarbonyl)amino][1,3]thiazolo[5,4-b]pyridin-5-yl}oxy)phenyl]benzamide], in experiment [1], the IC50 is less than 500 nM.
In the case of `Cc1ccc(NC(=O)c2cccc(C3(C#N)CC3)c2)cc1Oc1ccc2nc(NC(=O)CO)sc2n1` [Example C17, 3-(1-cyanocyclopropyl)-N-(3-{[2-(glycoloylamino)[1,3]thiazolo[5,4-b]pyridin-5-yl]oxy}-4-methylphenyl)benzamide], on BRAF (V600E), the inhibition at 1 µM is 99%.
Regarding `COc1ccc(NC(=O)c2cccc(C(C)(C)C#N)c2)cc1Oc1ccc2nc(NC(=O)C3CC3)sc2n1` [Example C6, 3-(1-cyano-1-methylethyl)-N-[3-({2-[(cyclopropylcarbonyl)amino][1,3]thiazolo[5,4-b]pyridin-5-yl}oxy)-4-methoxyphenyl]benzamide], the IC50 in experiment [1] is less than 500 nM.
For `Cc1ccc(NC(=O)c2cccc(C(C)(C)C#N)c2)cc1Oc1ccc2nc(NC(=O)CN3CCN(C)CC3)sc2n1` [Example C15, 3-(1-cyano-1-methylethyl)-N-{4-methyl-3-[(2-{[(4-methylpiperazin-1-yl)acetyl]amino}[1,3]thiazolo[5,4-b]pyridin-5-yl)oxy]phenyl}benzamide], the 50% inhibitory concentration (IC50) in experiment [1] is less than 500 nM.
For the molecule `N#CC1(c2cccc(C(=O)Nc3cc(Oc4ccc5nc(NC(=O)C6CC6)sc5n4)c(F)cc3F)c2Cl)CC1` [Example C75, 2-chloro-3-(1-cyanocyclopropyl)-N-[5-({2-[(cyclopropylcarbonyl)amino][1,3]thiazolo[5,4-b]pyridin-5-yl}oxy)-2,4-difluorophenyl]benzamide], the inhibition at 1 µM on BRAF (V600E) is 100%.
For `N#CC1(c2cccc(C(=O)Nc3cc(Oc4ccc5nc(NC(=O)C6CC6)sc5n4)ccc3F)c2Cl)CC1` [Example C66, 2-chloro-3-(1-cyanocyclopropyl)-N-[5-({2-[(cyclopropylcarbonyl)amino][1,3]thiazolo[5,4-b]pyridin-5-yl}oxy)-2-fluorophenyl]benzamide], in experiment [1], the IC50 was less than 500 nM.
The same measure, in the same setting: with `CN1CCN(CC(=O)Nc2nc3cnc(N(C)c4cccc(NC(=O)c5cccc(C(C)(C)C#N)c5)c4)nc3s2)CC1` [Example D11, 3-(1-cyano-1-methylethyl)-N-{3-[methyl(2-{[(4-methylpiperazin-1-yl)acetyl]amino}[1,3]thiazolo[5,4-d]pyrimidin-5-yl)amino]phenyl}benzamide] the figure was less than 500 nM; with `CC(C)(C#N)c1cccc(C(=O)Nc2cccc(Oc3ccc4nc(NC(=O)CO)sc4n3)c2)c1` [Example C24, 3-(1-cyano-1-methylethyl)-N-(3-{[2-(glycoloylamino)[1,3]thiazolo[5,4-b]pyridin-5-yl]oxy}phenyl)benzamide], less than 500 nM.
In the case of `CN(c1ccc(F)c(NC(=O)c2cccc(OC(C)(C)C#N)c2Cl)c1)c1ccc2nc(NC(=O)C3CC3)sc2n1` [Example C122, 2-chloro-3-(1-cyano-1-methylethoxy)-N-{5-[{2-[(cyclopropylcarbonyl)amino][1,3]thiazolo[5,4-b]pyridin-5-yl}(methyl)amino]-2-fluorophenyl}benzamide], the half-maximal inhibitory concentration (IC50) in experiment [1] is less than 500 nM.
